Assay results published in patent publication US12365687B2 (Hoffmann-La Roche Inc., priority 2021, dated 2025).

Key:
[1] = molecular target: human GABAA α5β2γ1 receptor (Homo sapiens (Human), UniProt P31644+Q8N1C3); experiment: Radioligand binding assay for γ1-containing GABAA subtypes, [3H]RO7239181 competition (α5β2γ1)
[2] = molecular target: human GABAA α2β2γ1 receptor (Homo sapiens (Human), UniProt P47869+Q8N1C3); experiment: Radioligand binding assay for γ1-containing GABAA subtypes, [3H]RO7239181 competition (α2β2γ1)
[3] = molecular target: human GABAA α1β3γ2 receptor (Homo sapiens (Human), UniProt P14867+P18507); experiment: Radioligand binding assay for γ2-containing GABAA subtypes, [3H]Flumazenil competition (α1β3γ2); details: for γ2/γ1 Selectivity Ratio: Ki α1β3γ2 (nM)/Ki α2β2γ1 (nM); for LogSel: Log[Ki α1β3γ2 (nM)/Ki α2β2γ1 (nM)]
[4] = molecular target: α2β2γ1 GABAA receptor subtype (Homo sapiens (Human), UniProt P47869+Q8N1C3); experiment: Two-electrode voltage clamp electrophysiology in Xenopus oocytes expressing GABAA receptors (modulation of GABA EC20 current); type: cell-based; details: for Efficacy (GABA)%: % modulation of GABA EC20 = 100*(Fold increase-1), α2β2γ1 oocytes, compound at approx. 30-fold Ki; for Fold increase h-GABA-A α2β2γ1 oocyte @ 30-fold Ki: Xenopus oocytes expressing α2β2γ1, compound at approx. 30-fold its Ki α2β2γ1, GABA EC20 current
Outline: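 Each concentration was tested on ≥3 oocytes held at −80 mV at room temperature, recorded 3-5 days post-injection. A control and a test response to EC20 GABA (1.5 min each) were superimposed and their point-by-point ratio taken. Peak ratio reported as % modulation of GABA EC20 = 100×(fold increase−1).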

[5] = Ki h-GABAA α2β2γ1, [3H]RO7239181 competition binding, human GABAA α2β2γ1
[6] = Ki h-GABAA α2β2γ1, displacement of [3H]RO7239181, membranes of HEK293F cells expressing human receptors, means of two determinations

Row | Compound | Ki [1] | Ki [2, 5] | Ki [2, 6] | Ki [3] | γ2/γ1 Selectivity Ratio [3] | LogSel [3] | Efficacy (GABA)% [4] | Fold increase h-GABA-A α2β2γ1 oocyte @ 30-fold Ki [4]
1 | CO[C@@H]1CCN(C(=O)c2nc3n(n2)-c2ccc(Cl)c(Cl)c2C(c2c(F)cccc2F)=N[C@H]3C)C1 [Example 46, [(4S)-7,8-dichloro-6-(2,6-difluorophenyl)-4-methyl-4H-[1,2,4]triazolo[1,5-a][1,4]benzodiazepin-2-yl]-[(3R)-3-methoxypyrrolidin-1-yl]methanone] | 2.14 nM | 5.9 nM | 5.91 nM | 867 nM | 146.6 | 2.17 | 73% | 1.73
2 | C[C@@H]1N=C(c2c(F)cccc2F)c2c(ccc(Cl)c2Cl)-n2nc(C(=O)N3CC[C@@H](O)C3)nc21 [Example 47, [(4S)-7,8-dichloro-6-(2,6-difluorophenyl)-4-methyl-4H-[1,2,4]triazolo[1,5-a][1,4]benzodiazepin-2-yl]-[(3R)-3-hydroxypyrrolidin-1-yl]methanone] | 1.44 nM | 3.4 nM | 3.43 nM | 1010 nM | 294.7 | 2.47 | 74% | 1.74
3 | C[C@@H]1N=C(c2ncccc2F)c2c(ccc(Br)c2Cl)-n2nc(C(=O)N3CCC3)nc21 [Example 48, azetidin-1-yl-[(4S)-8-bromo-7-chloro-6-(3-fluoro-2-pyridyl)-4-methyl-4H-[1,2,4]triazolo[1,5-a][1,4]benzodiazepin-2-yl]methanone] | 3.22 nM | 18.6 nM | 18.6 nM | 1310 nM | 70.2 | 1.85 | 94% | 1.94
4 | C[C@@H]1N=C(c2c(F)cccc2F)c2c(ccc(Cl)c2Cl)-n2nc(C3CC3)nc21 [Example 49, (4S)-7,8-dichloro-2-cyclopropyl-6-(2,6-difluorophenyl)-4-methyl-4H-[1,2,4]triazolo[1,5-a][1,4]benzodiazepine] | 1.41 nM | 15.7 nM | 15.7 nM | 619 nM | 39.5 | 1.60 | 75% | 1.75
5 | C[C@@H]1N=C(c2c(F)cccc2F)c2c(ccc(Cl)c2Cl)-n2nc(N3CCCC3=O)nc21 [Example 50, 1-[(4S)-7,8-dichloro-6-(2,6-difluorophenyl)-4-methyl-4H-[1,2,4]triazolo[1,5-a][1,4]benzodiazepin-2-yl]pyrrolidin-2-one] | 0.89 nM | 4.5 nM | 4.5 nM | 376 nM | 83.5 | 1.92 | 60% | 1.60
6 | C[C@@H]1N=C(c2c(F)cccc2F)c2c(ccc(Cl)c2Cl)-n2nc(N3CCS(=O)(=O)CC3)nc21 [Example 52, 4-[(4S)-7,8-dichloro-6-(2,6-difluorophenyl)-4-methyl-4H-[1,2,4]triazolo[1,5-a][1,4]benzodiazepin-2-yl]-1,4-thiazinane 1,1-dioxide] | 1.26 nM | 12.4 nM | 12.4 nM | 578 nM | 46.6 | 1.67 | 41% | 1.41
7 | C[C@@H]1N=C(c2c(F)cccc2F)c2c(ccc(Cl)c2Cl)-n2nc(C#N)nc21 [Example 53, (4S)-7,8-dichloro-6-(2,6-difluorophenyl)-4-methyl-4H-[1,2,4]triazolo[1,5-a][1,4]benzodiazepine-2-carbonitrile] | 1.65 nM | 61.4 nM | 61.4 nM | 2550 nM | 41.5 | 1.62 | 73% | 1.73
8 | C[C@@H]1N=C(c2c(F)cccc2F)c2c(ccc(Cl)c2Cl)-n2nc(C(=O)NC3COC3)nc21 [Example 55, (4S)-7,8-dichloro-6-(2,6-difluorophenyl)-4-methyl-N-(oxetan-3-yl)-4H-[1,2,4]triazolo[1,5-a][1,4]benzodiazepine-2-carboxamide] | 1.15 nM | 5.4 nM | 5.4 nM | 555 nM | 102.8 | 2.01 | 58% | 1.58
9 | C[C@@H]1N=C(c2c(F)cccc2F)c2c(ccc(Cl)c2Cl)-n2nc(C(=O)NCC#N)nc21 [Example 56, (4S)-7,8-dichloro-N-(cyanomethyl)-6-(2,6-difluorophenyl)-4-methyl-4H-[1,2,4]triazolo[1,5-a][1,4]benzodiazepine-2-carboxamide] | 0.85 nM | 4.6 nM | 4.63 nM | 432 nM | 93.4 | 1.97 | 72% | 1.72
10 | C[C@@H]1N=C(c2c(F)cccc2F)c2c(ccc(Cl)c2Cl)-n2nc(NC(=O)N3CC(F)C3)nc21 [Example 57, 3-fluoro-N-[(4S)-7,8-dichloro-6-(2,6-difluorophenyl)-4-methyl-4H-[1,2,4]triazolo[1,5-a][1,4]benzodiazepin-2-yl]azetidine-1-carboxamide] | 1.84 nM | 17.8 nM | 17.8 nM | 822 nM | 46.2 | 1.67 | 76% | 1.76
11 | C[C@@H]1N=C(c2c(F)cccc2F)c2c(ccc(Cl)c2Cl)-n2nc(C(=O)NCC(F)F)nc21 [Example 59, (4S)-7,8-dichloro-N-(2,2-difluoroethyl)-6-(2,6-difluorophenyl)-4-methyl-4H-[1,2,4]triazolo[1,5-a][1,4]benzodiazepine-2-carboxamide] | 1.26 nM | 7 nM | 7 nM | 640 nM | 90.9 | 1.96 | 74% | 1.74
12 | COC1CN(C(=O)Nc2nc3n(n2)-c2ccc(Cl)c(Cl)c2C(c2c(F)cccc2F)=N[C@H]3C)C1 [Example 60, 3-methoxy-N-[(4S)-7,8-dichloro-6-(2,6-difluorophenyl)-4-methyl-4H-[1,2,4]triazolo[1,5-a][1,4]benzodiazepin-2-yl]azetidine-1-carboxamide] | 1.49 nM | 12.3 nM | 12.3 nM | 602 nM | 49.1 | 1.69 | 107% | 2.07
13 | C[C@@H]1N=C(c2c(F)cccc2F)c2c(ccc(Cl)c2Cl)-n2nc(C(=O)NC3(C#N)CC3)nc21 [Example 61, (4S)-7,8-dichloro-N-(1-cyanocyclopropyl)-6-(2,6-difluorophenyl)-4-methyl-4H-[1,2,4]triazolo[1,5-a][1,4]benzodiazepine-2-carboxamide] | 1.45 nM | 4.2 nM | 4.18 nM | 585 nM | 140.0 | 2.15 | 99% | 1.99
14 | COC1CN(C(=O)c2nc3n(n2)-c2ccc(Cl)c(Cl)c2C(c2ncccc2F)=NC3)C1 [Example 62, [7,8-dichloro-6-(3-fluoro-2-pyridyl)-4H-[1,2,4]triazolo[1,5-a][1,4]benzodiazepin-2-yl]-(3-methoxyazetidin-1-yl)methanone] | 3.7 nM | 9 nM | 9 nM | 773 nM | 85.7 | 1.93 | 93% | 1.93
15 | C[C@H](O)CNC(=O)c1nc2n(n1)-c1ccc(Cl)c(Cl)c1C(c1c(F)cccc1F)=N[C@H]2C [Example 63, (4S)-7,8-dichloro-6-(2,6-difluorophenyl)-4-methyl-N-[(2S)-2-hydroxypropyl]-4H-[1,2,4]triazolo[1,5-a][1,4]benzodiazepine-2-carboxamide] | 1.33 nM | 4.2 nM | 4.25 nM | 606 nM | 142.6 | 2.15 | 79% | 1.79
16 | CCNC(=O)c1nc2n(n1)-c1ccc(Cl)c(Cl)c1C(c1c(F)cccc1F)=N[C@H]2C [Example 64, (4S)-7,8-dichloro-6-(2,6-difluorophenyl)-N-ethyl-4-methyl-4H-[1,2,4]triazolo[1,5-a][1,4]benzodiazepine-2-carboxamide] | 1.16 nM | 5.4 nM | 5.4 nM | 889 nM | 165.6 | 2.22 | 75% | 1.75
